According to ChEMBL document CHEMBL1201862, “PubChem BioAssay data set” (2004):
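Values below derive from 48-hour exposures of cells grown in 96-well plates, with endpoints linearly interpolated between the two concentrations bracketing the appropriate inhibition level. GI50 is the concentration that inhibits growth by half.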 Calls of active or inactive are those of the source. No stated cut-off is given here; in the data, active = GI50 up to about 1.1 µM and inactive = higher.

How the values were obtained:
Experiment in all cases: growth of human tumour cells (NCI), 48 h
DLD-1 = tested on: DLD-1
DMS-273 = tested on: DMS-273
LXFL 529 = tested on: LXFL 529
RXF 631 = tested on: RXF 631
SNB-78 = tested on: SNB-78
XF498 = tested on: XF498
HOP-18 = tested on: HOP-18
KM-20L2 = tested on: KM-20L2

Measured: GI50

CC(=O)NNc1nc(C)c(C(=O)/C=C/c2ccc(/C=C/C(=O)c3sc(NNC(C)=O)nc3C)cc2)s1
inactive: DLD-1 > 100 µM | DMS-273 > 100 µM | LXFL 529 > 100 µM | RXF 631 > 100 µM | SNB-78 > 100 µM | XF498 > 100 µM

CC(C)C1=CC(=O)C(C)(C2=NC(C)(C)CO2)c2ccccc21 (stereo not given)
inactive: DLD-1 > 100 µM | DMS-273 > 100 µM | HOP-18 34.6 µM | KM-20L2 > 100 µM | LXFL 529 94.4 µM | RXF 631 95.7 µM | XF498 > 100 µM

Cc1ccc(NC(=O)CC/C(CC(=O)c2ccc(F)cc2)=N\NC(=O)C(=O)NN)cc1C
inactive: DLD-1 > 100 µM | DMS-273 > 100 µM | HOP-18 > 100 µM | KM-20L2 > 100 µM | LXFL 529 > 100 µM | RXF 631 > 100 µM | SNB-78 > 100 µM

CC(C)C(=O)NC(=S)Nc1ccc([N+](=O)[O-])cc1C#N
inactive: DLD-1 > 100 µM | DMS-273 > 100 µM | HOP-18 > 100 µM | KM-20L2 > 100 µM | LXFL 529 > 100 µM | RXF 631 99.1 µM | SNB-78 > 100 µM | XF498 > 100 µM

N#CCC(=O)Nc1cccc(C(F)(F)F)c1
inactive: DLD-1 > 100 µM | DMS-273 > 100 µM | HOP-18 29.2 µM | KM-20L2 > 100 µM | LXFL 529 > 100 µM | RXF 631 > 100 µM | SNB-78 > 100 µM | XF498 > 100 µM

CCCCCCCCCCCCCC(=O)OCC(C[As](=O)(O)O)OC(=O)CCCCCCCCCCCCC (stereo not given)
inactive: DLD-1 > 100 µM | DMS-273 > 100 µM | HOP-18 > 100 µM | KM-20L2 > 100 µM | LXFL 529 > 100 µM | RXF 631 > 100 µM | SNB-78 > 100 µM | XF498 > 100 µM

Cc1c(Cl)ccc2c1NC(=O)C2(O)C(C(=O)c1ccccc1)c1ccccc1 (stereo not given)
inactive: DLD-1 83.9 µM | DMS-273 51.5 µM | HOP-18 52.4 µM | KM-20L2 46 µM | LXFL 529 57.3 µM | RXF 631 62.2 µM | SNB-78 > 100 µM | XF498 32.7 µM

COC(=O)C1CCc2nnc(-c3cccnc3)n21 (stereo not given)
inactive: DLD-1 > 100 µM | DMS-273 > 100 µM | HOP-18 > 100 µM | KM-20L2 > 100 µM | LXFL 529 > 100 µM | RXF 631 > 100 µM | SNB-78 > 100 µM

CC(=O)c1ccccc1NC(=O)C(=O)C(C(=O)c1ccccc1-c1ccccc1)C1OC(=O)c2ccccc21 (stereo not given)
inactive: DLD-1 23.1 µM | DMS-273 31.9 µM | HOP-18 15.2 µM | KM-20L2 26.6 µM | LXFL 529 15.5 µM | RXF 631 50.6 µM | SNB-78 30.4 µM | XF498 11.3 µM

C#C[C@@H](CCCC)OC(=O)N[C@H](C)c1ccccc1
inactive: DLD-1 59.4 µM | DMS-273 37.2 µM | HOP-18 > 100 µM | KM-20L2 51.8 µM | LXFL 529 43.1 µM | RXF 631 45.6 µM | SNB-78 94.6 µM | XF498 66.8 µM

Cc1ccc(NC(=O)CCCC(=O)CC(=O)c2ccc(Br)cc2)cc1
inactive: DLD-1 > 100 µM | DMS-273 > 100 µM | HOP-18 > 100 µM | KM-20L2 > 100 µM | LXFL 529 > 100 µM | RXF 631 > 100 µM | SNB-78 > 100 µM

O=C1/C(=C/c2ccc(Cl)cc2)COc2ccc(Br)cc21
inactive: DLD-1 > 100 µM | DMS-273 > 100 µM | HOP-18 11.6 µM | KM-20L2 > 100 µM | LXFL 529 > 100 µM | RXF 631 > 100 µM | SNB-78 > 100 µM | XF498 69 µM
